{"source": "paper PMC8949600", "about": "“In Vitro & In Vivo Studies on Identifying and Designing Temporin-1CEh from the Skin Secretion of Rana chensinensis as the Optimised Antibacterial Prototype Drug” (Pharmaceutics, 2022)", "key": {"E. coli (ATCC 8739) [1]": {"tested_on": "E. coli (ATCC 8739)", "assay_type": "cell-based", "experimental": "(§1) A measure of 5 × 10^5 CFU/mL of bacterial suspension including 2-fold dilution peptides (ranging from 1 µM to 512 µM) was incubated in 96-well plates for 16–20 h at 37 °C. For the positive and negative control, 200 mg/L of final concentration of norfloxacin and 1% DMSO were applied, respectively. […] Subsequently, 10 µL of the solution in each clear well was dropped on a Mueller–Hinton agar (MHA) plate and incubated at 37 °C for 16–20 h. The lowest concentration without colony growth was considered as the MBCs.\n(§2) Mueller–Hinton broth (MHB) at pH 6.0 and 8.0 as well as MHB containing 10% of Fetal Bovine Serum (FBS), 150 mM of NaCl, 1 mM of MgCl2 and 4 µM of FeCl3, respectively, were prepared. In particular, the pathogens were diluted by the preprepared mediums to a final concentration of 5 × 10^5 CFU/mL after growing to the logarithmic phase, and other operations followed the MIC assay."}, "E. faecalis (NCTC 12697)": {"tested_on": "E. faecalis (NCTC 12697)", "assay_type": "cell-based", "experimental": "as §1, §2"}, "[2]": {"tested_on": "K. pneumoniae (ATCC 43816)", "assay_type": "cell-based", "experimental": "as §1, §2"}, "MRSA (NCTC 12493)": {"tested_on": "MRSA (NCTC 12493)", "assay_type": "cell-based", "experimental": "as §1, §2"}, "[3]": {"tested_on": "P. aeruginosa (ATCC 27853)", "assay_type": "cell-based", "experimental": "as §1, §2"}, "[4]": {"tested_on": "S. aureus (ATCC CRM 6538)", "assay_type": "cell-based", "experimental": "as §1, §2"}, "[5]": {"tested_on": "E. coli (ATCC 8739) biofilm", "assay_type": "cell-based", "experimental": "(§3) The anti-biofilm activities were tested on S. aureus and E. coli, as indicated previously. For the positive and negative control, 20 mg/mL of vancomycin and 1% DMSO were applied, respectively, in both assays. In addition, 0.1% Crystal Violet was used as the biofilm colouring agent."}, "[6]": {"tested_on": "S. aureus (ATCC CRM 6538) biofilm", "assay_type": "cell-based", "experimental": "as §3"}, "E. coli (ATCC 8739) [7]": {"tested_on": "E. coli (ATCC 8739)", "assay": "Membrane permeability assay (SYTOX GREEN)", "assay_type": "cell-based", "from_the_text": "(§4) In order to test the permeability percentage of Temporin-1CEh and its analogues against S. aureus and E. coli, the SYTOX-GREEN nucleic acid stain was used in the assay indicated before. Tryptic soy broth (TSB) and Luria–Bertani (LB) broth were used as the media for S. aureus and E. coli, respectively."}, "[8]": {"tested_on": "S. aureus (ATCC CRM 6538)", "assay": "Membrane permeability assay (SYTOX GREEN)", "assay_type": "cell-based", "from_the_text": "as §4"}, "S. aureus": {"tested_on": "S. aureus", "assay": "Galleria mellonella larvae infection model, S. aureus", "assay_type": "in vivo", "settings": "at a concentration of 20 mg/kg; G. mellonella larvae", "experimental": "(§5) In this assay, the larvae of the wax moth (Galleria mellonella) were used as the infection model. The larvae (Livefood UK Ltd., Rooks Bridge, UK) were selected between 225 and 275 mg (9 larvae per group in a Petri dish). For the positive and negative controls, 50 mg/kg of vancomycin (25 mg/kg of ampicillin for E. coli) and PBS were employed. Final concentration of S. aureus and E. coli cells injected was 5 × 10^5 and 5 × 10^6 CFU/larva, respectively. The assay was performed as described before and the number of alive larvae was recorded every 12 h."}, "E. coli": {"tested_on": "E. coli", "assay": "Galleria mellonella larvae infection model, E. coli", "assay_type": "in vivo", "settings": "all tested concentrations; G. mellonella larvae, 5 × 10^6 CFU/larva", "experimental": "as §5"}, "[9]": {"assay": "Aggregation at high concentration (observation)", "assay_type": "physicochemical", "settings": "at a high concentration"}, "[10]": {"tested_on": "erythrocytes from defibrinated horse blood", "assay": "Haemolysis assay", "settings": "at 256 μM; horse erythrocytes", "description": "The erythrocytes from defibrinated horse blood (TCS Biosciences Ltd., Buckingham, UK) were used to perform the haemolysis assay, as described previously [27]. Equal volumes of PBS and 2% (v/v) of the non-ionic detergent, Triton X-100 (Sigma–Aldrich, St. Louis, MO, USA) in PBS solution, were used as negative and positive controls, respectively. HC50 was defined as the mean peptide concentration producing 50% haemolysis."}, "E. coli (ATCC 8739) [11]": {"tested_on": "E. coli (ATCC 8739)", "settings": "MIC of Temporin-1CEa ref 29; cited from earlier work", "from_the_text": "(§6) Table 2 The MICs and MBCs of Temporin-1CEh and its analogues as well as Temporin-1CEa against the S. aureus (ATCC CRM 6538), MRSA (NCTC 12493), E. faecalis (NCTC 12697), E. coli (ATCC 8739), P. aeruginosa (ATCC 27853) and K. pneumonia (ATCC 43816), as well as the MICs of Temporin-1CEa against S. aureus and E. coli. | column: MIC/MBC (μM) / Temporin-1CEa"}, "[12]": {"tested_on": "S. aureus (ATCC CRM 6538)", "settings": "MIC of Temporin-1CEa ref 29; cited from earlier work", "from_the_text": "as §6"}, "[13]": {"tested_on": "erythrocytes from defibrinated horse blood", "settings": "cited from earlier work", "experimental": "The calculated HC50 of Temporin-1CEh was 152.6 μM compared to that of Temporin-1CEa which was 160 μM [29]. Several modified strategies were used to optimise their antibacterial activity."}}, "note": "Read-outs that look alike come from different tables or passages of the source. Bridge positions count the residues as written; N and C are the ends. Peptide text beside a SMILES is read from it. I, II: the chains in the order shown."}
{"compound": "CC[C@H](C)[C@H](NC(=O)[C@H](CCCCNC(=O)[C@H](CCCCN)NC(=O)[C@H](Cc1c[nH]c2ccccc12)NC(=O)[C@@H]1CCCN1C(=O)[C@@H](NC(=O)[C@H](Cc1c[nH]c2ccccc12)NC(=O)[C@H](CCCCN)NC(=O)[C@@H](N)CCCCN)C(C)C)NC(=O)[C@H](CCCCN)NC(=O)[C@H](Cc1c[nH]c2ccccc12)NC(=O)[C@@H]1CCCN1C(=O)[C@@H](NC(=O)[C@H](Cc1c[nH]c2ccccc12)NC(=O)[C@H](CCCCN)NC(=O)[C@@H](N)CCCCN)C(C)C)C(=O)N[C@@H](C)C(=O)N[C@@H](CC(N)=O)C(=O)N[C@H](C(=O)N[C@@H](CC(C)C)C(N)=O)[C@@H](C)CC", "note": "[Peptide T1CEh-KKPWW2] (I: H-KKWVPWKKIANIL-NH2 / II: H-KKWVPWK; amide I:8-II:C; N-terminus assumed)", "values": [{"measurement": "MBC", "setting": "E. coli (ATCC 8739) [1]; ATCC 8739", "value": 2, "unit": "µM"}, {"measurement": "MIC", "setting": "E. coli (ATCC 8739) [1]; ATCC 8739", "value": 2, "unit": "µM"}, {"measurement": "MIC", "setting": "E. coli (ATCC 8739) [1]; ATCC 8739, pH 6", "value": 2, "unit": "µM"}, {"measurement": "MIC", "setting": "E. coli (ATCC 8739) [1]; ATCC 8739, pH 7", "value": 2, "unit": "µM"}, {"measurement": "MIC", "setting": "E. coli (ATCC 8739) [1]; ATCC 8739, pH 8", "value": 2, "unit": "µM"}, {"measurement": "decrease of MIC comparing with that of T1CEh-KKPWW", "setting": "E. coli (ATCC 8739) [1]; E. coli", "value": "twofold"}, {"measurement": "decrease of MIC comparing with that of T1CEh-KKPWW", "setting": "E. faecalis (NCTC 12697); E. faecalis", "value": "four-fold"}, {"measurement": "MBC", "setting": "E. faecalis (NCTC 12697); NCTC 12697", "value": 64, "unit": "µM"}, {"measurement": "MIC", "setting": "E. faecalis (NCTC 12697); NCTC 12697", "value": 32, "unit": "µM"}, {"measurement": "MIC", "setting": "E. faecalis (NCTC 12697); NCTC 12697, pH 6", "value": 128, "unit": "µM"}, {"measurement": "MIC", "setting": "E. faecalis (NCTC 12697); NCTC 12697, pH 7", "value": 32, "unit": "µM"}, {"measurement": "MIC", "setting": "E. faecalis (NCTC 12697); NCTC 12697, pH 8", "value": 64, "unit": "µM"}, {"measurement": "MBC", "setting": "[2]; ATCC 43816", "value": 8, "unit": "µM"}, {"measurement": "MIC", "setting": "[2]; ATCC 43816", "value": 4, "unit": "µM"}, {"measurement": "MIC", "setting": "[2]; ATCC 43816, pH 6", "value": 8, "unit": "µM"}, {"measurement": "MIC", "setting": "[2]; ATCC 43816, pH 7", "value": 4, "unit": "µM"}, {"measurement": "MIC", "setting": "[2]; ATCC 43816, pH 8", "value": 4, "unit": "µM"}, {"measurement": "decrease of MIC comparing with that of T1CEh-KKPWW", "setting": "MRSA (NCTC 12493); MRSA", "value": "four-fold"}, {"measurement": "MBC", "setting": "MRSA (NCTC 12493); NCTC 12493", "value": 16, "unit": "µM"}, {"measurement": "MIC", "setting": "MRSA (NCTC 12493); NCTC 12493", "value": 8, "unit": "µM"}, {"measurement": "MIC", "setting": "MRSA (NCTC 12493); NCTC 12493, pH 6", "value": 16, "unit": "µM"}, {"measurement": "MIC", "setting": "MRSA (NCTC 12493); NCTC 12493, pH 7", "value": 8, "unit": "µM"}, {"measurement": "MIC", "setting": "MRSA (NCTC 12493); NCTC 12493, pH 8", "value": 2, "unit": "µM"}, {"measurement": "MBC", "setting": "[3]; ATCC 27853", "value": 16, "unit": "µM"}, {"measurement": "MIC", "setting": "[3]; ATCC 27853", "value": 8, "unit": "µM"}, {"measurement": "MIC", "setting": "[3]; ATCC 27853, pH 6", "value": 32, "unit": "µM"}, {"measurement": "MIC", "setting": "[3]; ATCC 27853, pH 7", "value": 8, "unit": "µM"}, {"measurement": "MIC", "setting": "[3]; ATCC 27853, pH 8", "value": 8, "unit": "µM"}, {"measurement": "decrease of MIC comparing with that of T1CEh-KKPWW", "setting": "[3]; P. aeruginosa", "value": "twofold"}, {"measurement": "MBC", "setting": "[4]; ATCC CRM 6538", "value": 8, "unit": "µM"}, {"measurement": "MIC", "setting": "[4]; ATCC CRM 6538", "value": 4, "unit": "µM"}, {"measurement": "MIC", "setting": "[4]; ATCC CRM 6538, pH 6", "value": 8, "unit": "µM"}, {"measurement": "MIC", "setting": "[4]; ATCC CRM 6538, pH 7", "value": 4, "unit": "µM"}, {"measurement": "MIC", "setting": "[4]; ATCC CRM 6538, pH 8", "value": 2, "unit": "µM"}, {"measurement": "MBEC", "setting": "[5]", "value": "> 256", "unit": "µM"}, {"measurement": "MBIC", "setting": "[5]", "value": 8, "unit": "µM"}, {"measurement": "MBEC", "setting": "[6]", "value": "> 256", "unit": "µM"}, {"measurement": "MBIC", "setting": "[6]", "value": 32, "unit": "µM"}, {"measurement": "permeability rates compared with that of Temporin-1CEh", "setting": "E. coli (ATCC 8739) [7]", "value": "higher permeability rates"}, {"measurement": "permeability rates compared with that of Temporin-1CEh", "setting": "[8]", "value": "higher permeability rates"}, {"measurement": "mortality of S. aureus infected larvae", "setting": "S. aureus", "value": "significantly reduced the mortality"}, {"measurement": "mortality of E. coli infected larvae", "setting": "E. coli", "value": "reduced the mortality"}, {"measurement": "aggregation", "setting": "[9]", "value": "aggregation can be found in T1CEh-KKPWW2 at a high concentration, achieving hydrogel"}, {"measurement": "haemolysis rate", "setting": "[10]", "value": 63, "unit": "%"}]}
{"compound": "FVDLKKIANIINSIF-NH2 [Temporin-1CEa]", "values": [{"measurement": "MIC", "setting": "E. coli (ATCC 8739) [11]", "value": ">100", "unit": "µM"}, {"measurement": "MIC", "setting": "[12]", "value": 13.1, "unit": "µM"}, {"measurement": "HC50", "setting": "[13]", "value": 160, "unit": "µM"}]}
